What all share (type): cell-based
The subject of series [1] is human RBCs. The series is described as follows: Haemolytic activity. The settings on record: concentration at which 50% of human blood cells are lysed; 1 h at 37° C. Here is the method:
Erythrocytes were isolated from freshly drawn, heparanized human blood and re-suspended to 5 vol % in PBS (pH 7.4). In a 96-well microtiter plate, 150 μl of erythrocyte suspension was added to 50 μl of serially diluted compound. Two controls were made, one without compound and other with 50 μl of 1 vol % solution of Triton X-100. The plate was incubated for 1 h at 37° C. The plate was then centrifuged at 3,500 rpm for 5 min, 100 μl of the supernatant from each well was transferred to a fresh 96-well microtiter plate, and A540 was measured. Percentage of hemolysis was determined as (A−A0)/(Atotal−A0)×100, where A is the absorbance of the test well, A0 the absorbance of the negative controls (without compound), and Atotal the absorbance of 100% hemolysis wells (with Triton X-100), all at 540 nm.
Toxicity studies of the compounds were done on freshly drawn human RBCs. Toxicity of the compounds were defined by their HC50 values (Table 2), i.e. the concentration of compound at which 50% of the blood cells are lysed.

The test system of series [2] is A. baumannii R674. The series is described as follows: Individual antibacterial activity (MIC) of adjuvants. The settings on record: adjuvant alone; A. baumannii R674. Here is the method: (§1) The combination efficacy with antibiotics from different classes and individual antibacterial activity of the synthesized adjuvants was evaluated against the above mentioned MDR and NDM-1 strains of Gram-negative bacteria. All the bacteria were grown in peptone. The bacterial samples were freeze dried and stored at −80° C. 3 μl of these stocks were added to 3 mL of peptone and the culture was grown for 6 h at 37° C. prior to the experiments.
(§2) All synthesized compounds were assayed for their antibacterial activity in combination with antibiotics in a modified chequerboard micro-dilution broth format. Stock solutions were made by serially diluting the compounds using autoclaved millipore water. The bacterial freeze dried stock samples were stored at −80° C. About 3 μL of these stocks were added to about 3 mL of the respective broth and the culture was grown for about 6 h at about 37° C. with prior to the experiments. This 6 h grown culture gives about 10^8 cfu/mL in case of A. baumannii R674, P. aeruginosa R590, E. coli R3336 and K. pneumoniae R3934 which were determined by spread plating method. This 6 h grown culture was diluted to give effective cell concentration of 10^5 cfu/mL, and then used for the chequerboard assay. Adjuvants and antibiotics were serially diluted in two-fold, in sterile millipore water. 25 μL of these serial dilutions of the antibiotics and 25 μL of compounds were added to the wells of 96 well plate followed by the addition of about 150 μL of bacterial solution (˜10^5 cfu/mL). The plates were then incubated at about 37° C., 150 rpm in the incubator and O.D at 600 nm was recorded at 24 h using TECAN (Infinite series, M200 pro) Plate Reader. The wells with similar OD as the media control contained the required concentration of the antibiotic and adjuvant for antibacterial efficacy. The potentiation ability of the adjuvants was determined by calculating the potentiation factor and the Fractional Inhibitory concentration (FIC) index. Fractional Inhibitory Concentration (FIC) is expressed as, FIC=[X]/MICX, where [X] is the lowest inhibitory concentration of antibiotic in the presence of the adjuvant. Whereas FIC index is expressed as, FICI=FICantibiotic+FICadjuvant. The values of FIC index give an insight about the nature of the combination. Potentiation factor which means fold-reduction in the MIC of the antibiotic, when used in combination with the adjuvant was also determined. Potentiation factor=[Minimum inhibitory concentration (MIC) of antibiotic in absence of adjuvant]/[MIC of antibiotic in presence of adjuvant]. […] The combination efficacies of adjuvants with various antibiotics are furnished in Table 1. It should be noted that various other resistant strains of bacteria (Gram-positive and Gram-negative) can be tested with a number of other antibiotics to check the potentiation capacity of the adjuvants.

The test system of series [3] is A. baumannii R674. The series is described as follows: Chequerboard combination efficacy of adjuvant with antibiotics. How it is done:
(§3) All the solvents were of reagent grade, which were distilled and dried before its use. All the reagents were purchased from Sigma-Aldrich, Alfa-Aesar, S.D. Fine, Avra and Spectrochem, and were used without further purification. Analytical thin layer chromatography (TLC) was performed on E. Merck TLC plates pre-coated with silica gel 60 F254 and visualization was carried out using UV light and Iodine. Column chromatography was performed on silica gel (60-120 mesh) using different ratio of chloroform and methanol solvent system. Nuclear magnetic resonance spectra were recorded on Bruker (AV-400) 400 MHz spectrometer in deuterated solvents. Mass spectra were obtained using 6538-UHD Accurate mass Q-TOF LC-MS instrument. For optical density measurement during bacteriology experiments, Tecan Infinite Pro series M200 Microplate Reader was used. Bacterial strains, A. baumannii (R674), P. aeruginosa (R590), E. coli (R3336) and K. pneumoniae (R3934) were used for the studies.
as §1, §2

Series [4] relates to P. aeruginosa R590. The series is described as follows: Individual antibacterial activity (MIC) of adjuvants. The settings on record: adjuvant alone; P. aeruginosa R590. Here is the method:
as §1, §2

For series [5], the system named is P. aeruginosa R590. The series is described as follows: Chequerboard combination efficacy of adjuvant with antibiotics. How it is done: as §3, §1, §2
Setting [6] is: antibiotic Rifampicin, P. aeruginosa R590.
[7] abbreviates: antibiotic Tetracycline, P. aeruginosa R590.

We go through seven compounds from patent US20220323383A1, “SMALL-MOLECULAR ADJUVANTS AND IMPLEMENTATIONS THEREOF” (JAWAHARLAL NEHRU CENTRE FOR ADVANCED SCIENTIFIC RESEARCH, priority 2019, published 2022).

SMILES strings stand for the structures. Values joined by “and” are separate entries in the source; they are usually repeats but may differ in a detail not shown here. Equal values may be shown once. Read-outs that look alike come from different tables or passages of the source. Where only a bound is given, the exact number is not on record here.

In general, HC50 refers to the concentration that lyses half of the red blood cells. Take `NCCCN(CCCN)C(=O)Cc1ccccc1.O=C(O)C(F)(F)F.O=C(O)C(F)(F)F` [Compound 1, N,N-bis((3-amino)propyl)phenyl ethanamide bis(trifluoroacetate)]: the HC50 in series [1] is >1024 µg/mL. Moreover, the “MIC against clinical isolates of bacteria” value (shortened to “MIC … of bacteria”) in series [2] was >512 µg/mL. For the same compound, in series [3] (antibiotic Rifampicin), the FICI is given as <0.75, the “MIC of antibiotic in presence of adjuvant” value (shortened to “MIC of antibiotic”) came to 32 µg/mL and the Potentiation factor came to 2. In addition, in series [3] (antibiotic Tetracycline), the FICI was <0.5, the “MIC of antibiotic” value turned out to be 64 µg/mL and the Potentiation factor stood at 2.

In the case of `NCCCN(CCCN)C(=O)Cc1cccc2ccccc12.O=C(O)C(F)(F)F.O=C(O)C(F)(F)F` [Compound 2, N,N-bis((3-amino)propyl)naphthyl ethanamide bis(trifluoroacetate)], the HC50 in series [1] is >1024 µg/mL. Moreover, the “MIC … of bacteria” value in series [4] and in series [2] was >512 µg/mL in each case. The FICI is <0.375 in series [5] (setting [6]), <0.5 in series [5] (setting [7]), <0.375 in series [3] (antibiotic Rifampicin) and <0.625 in series [3] (antibiotic Tetracycline). Besides, the “MIC of antibiotic” value in series [5] (setting [6]) was 16 µg/mL; in series [5] (setting [7]), 64 µg/mL; in series [3] (antibiotic Rifampicin) it was 8 µg/mL; in series [3] (antibiotic Tetracycline) it was 64 µg/mL. In addition, the Potentiation factor in series [5] (setting [6]) is 8; in series [5] (setting [7]) it was 4; in series [3] (antibiotic Rifampicin), 8; in series [3] (antibiotic Tetracycline), 2.

On to `NCCCN(CCCN)C(=O)c1ccc(-c2ccccc2)cc1.O=C(O)C(F)(F)F.O=C(O)C(F)(F)F` [Compound 3], for which the HC50 in series [1] was >1024 µg/mL. Moreover, the “MIC … of bacteria” value in series [4] and in series [2] was >512 µg/mL each time. Besides, the FICI in series [5] and in series [3] (antibiotic Rifampicin) was <0.5 in each case. In addition, the “MIC of antibiotic” value in series [5] is 32 µg/mL and >64 µg/mL; in series [3] (antibiotic Rifampicin), 16 µg/mL; in series [3] (antibiotic Tetracycline), >64 µg/mL. For the same compound, the Potentiation factor in series [5] (setting [6]) is recorded as 4; in series [5] (setting [7]), <4; in series [3] (antibiotic Rifampicin) it was 4; in series [3] (antibiotic Tetracycline), <2.

As to `NCCCN(CCCN)C(=O)CC(c1ccccc1)c1ccccc1.O=C(O)C(F)(F)F.O=C(O)C(F)(F)F` [Compound 4, N,N-bis((3-amino)propyl)3,3-diphenyl propanamide bis(trifluoroacetate)], the HC50 in series [1] is >1024 µg/mL. Besides, the “MIC … of bacteria” value in series [4] and in series [2] was >512 µg/mL each time. Moreover, the FICI in series [5] (setting [6]) is <0.28; in series [5] (setting [7]), <0.5; in series [3] (antibiotic Rifampicin), <0.26; in series [3] (antibiotic Tetracycline) it was <0.5. The “MIC of antibiotic” value in series [5] (setting [6]) was determined as 4 µg/mL; in series [5] (setting [7]), 64 µg/mL; in series [3] (antibiotic Rifampicin), 1 µg/mL; in series [3] (antibiotic Tetracycline), 32 µg/mL. Moreover, the Potentiation factor in series [5] (setting [6]) is 32; in series [5] (setting [7]), 4; in series [3] (antibiotic Rifampicin), 64; in series [3] (antibiotic Tetracycline), 4.

As to `CC(C)(C)OC(=O)NC(Cc1c[nH]c2ccccc12)C(=O)N(CCCN)CCCN.O=C(O)C(F)(F)F.O=C(O)C(F)(F)F.O=C(O)C(F)(F)F` (stereo not drawn) [Compound 5, N,N-bis((3-amino)propyl) 2′-(Boc-amino), 3′-indolo propanamide tris(trifluoroacetate)], the HC50 in series [1] was >1024 µg/mL. In addition, the “MIC … of bacteria” value in series [4] and in series [2] was >512 µg/mL in each case. Besides, the FICI was <0.3125 in series [5] (setting [6]) and <0.375 in series [3] (antibiotic Rifampicin). Besides, the figures for the “MIC of antibiotic” value in series [5] (setting [6]), in series [5] (setting [7]) and in series [3] (antibiotic Rifampicin) were 8 µg/mL, >64 µg/mL and 8 µg/mL, respectively. Moreover, the Potentiation factor in series [5] (setting [6]) is recorded as 16; in series [5] (setting [7]) it was <4; in series [3] (antibiotic Rifampicin), 8; in series [3] (antibiotic Tetracycline), <2.

For `NCCCN(CCCN)CC(=O)NC1C2CC3CC(C2)CC1C3.O=C(O)C(F)(F)F.O=C(O)C(F)(F)F.O=C(O)C(F)(F)F` (stereo not drawn) [Compound 6, N-(Adamantan-2-yl)-2-[N′,N′-{bis-(3-amino)propyl}amino] ethanamide tris(trifluoroacetate)], in series [1], the HC50 is >1024 µg/mL. Besides, the “MIC … of bacteria” value in series [4] and in series [2] was 512 µg/mL throughout. The FICI in series [5] (setting [6]) and in series [3] (antibiotic Rifampicin) was <0.06 each time. For the same compound, the “MIC of antibiotic” value is <0.25 µg/mL in series [5] (setting [6]), >64 µg/mL in series [5] (setting [7]), <0.25 µg/mL in series [3] (antibiotic Rifampicin) and >64 µg/mL in series [3] (antibiotic Tetracycline). For the same compound, the Potentiation factor was >512 in series [5] (setting [6]), <4 in series [5] (setting [7]), >256 in series [3] (antibiotic Rifampicin) and <2 in series [3] (antibiotic Tetracycline).

Consider `NCCCC[C@H](N)C(=O)NCCCN(CCCNC(=O)[C@@H](N)CCCCN)C(=O)Cc1cccc2ccccc12` [Compound 7, N,N-bis-[(6-(^LLys)amido)propyl] naphthyl ethanamide tetrakis(trifluoroacetate)], for which the HC50 in series [1] was >1024 µg/mL. The “MIC … of bacteria” value in series [4] and in series [2] was >512 µg/mL throughout. The FICI in series [5] (setting [6]) is <0.28; in series [5] (setting [7]), <0.5; in series [3] (antibiotic Rifampicin), <0.25; in series [3] (antibiotic Tetracycline), <0.5. In addition, the “MIC of antibiotic” value amounted to 4 µg/mL in series [5] (setting [6]), 64 µg/mL in series [5] (setting [7]), 8 µg/mL in series [3] (antibiotic Rifampicin) and 32 µg/mL in series [3] (antibiotic Tetracycline). In addition, the Potentiation factor in series [5] (setting [6]) was 32; in series [5] (setting [7]), 4; in series [3] (antibiotic Rifampicin) it was 8; in series [3] (antibiotic Tetracycline), 4.
